The values that follow come from patent US11331327B2, “Antibacterial use of halogenated salicylanilides” (UNION therapeutics A/S, priority 2014, dated 2022).

Values joined by “and” are separate entries in the source; they are usually repeats but may differ in a detail not shown here. Equal entries are not always repeated. Where two headings read alike, the source gives them in different places. Marks after values point to notes of the source that are not given here. Bounds are passed on as bounds.

One series concerns S. pyogenes strains. Put plainly: Minimum Inhibitory Concentration (MIC) assay, Example 1, S. pyogenes strains. The format is cell-based, Streptococcus pyogenes. To be noted: Streptococcus pyogenes, read-out: Mic100 S. pyogenes. How it is done:
(§1) Strains were conserved in Luria Bertani (LB) Broth (S. aureus) or Brain Heart Infusion (BHI) (S. pyogenes) supplemented with glycerol 15% (v/v) at −80° C., and reactivated by isolation on LB (S. aureus) or BHI (S. pyogenes) agar plates. Strains were cultivated in Mueller Hinton (MH) Broth-cation adjusted (S. aureus) supplemented with lysed horse blood 2.5% (v/v) (S. pyogenes). All strains were cultivated at 37° C., aerobically for S. aureus strains.
(§2) Bacterial cultures were stopped in their exponential growth phase and plates were inoculated with the approximate concentration of 10^3 cells per well. Plates were incubated at 37° C. for 18 hours (S. aureus) or 24 hours (S. pyogenes). Optical density at a wavelength of 600 nm was measured at the end of the incubation time. […] Experiments were performed at least as triplicate biological replicates with all strains.

The next series deals with S. aureus strains. Description: Minimum Inhibitory Concentration (MIC) assay, Example 1, S. aureus strains. The format is cell-based. To be noted: Staphylococcus aureus, read-out: Mic100 S. aureus. How it is done: as §1, §2
Series [1] concerns MRSA 01, MRSA 15, MRSA 16. Description: Mutational frequency evaluation, Example 1. To be noted: for Resistance mutation rate at MIC × 1: tested against one strain: MRSA 01; for mutational frequency at MIC×1: text summary of Table 4. The format is cell-based, Staphylococcus aureus. As for the experimental part:
Adequate dilutions were plated on plates without the compound.
Viable cell growth was enumerated after 48 hours of incubation at 37° C.
Ten replicates were carried out for each strain and fusidic acid, mupirocin and retapamulin were used as controls for the MRSA 01 strain.

The conditions of series [2]: cited from earlier work; for LD50 rats p.o: Table 3.
The conditions of series [3]: cited from earlier work.
For series [4] the following is noted: in vivo; cited from earlier work.
Setting [5] is: tested against one strain: S. pyogenes 01.

On to `Cc1cc(C(C#N)c2ccc(Cl)cc2)c(Cl)cc1NC(=O)c1cc(I)cc(I)c1O` (stereo not drawn) [Closantel, N-[5-chloro-4-[(4-chlorophenyl)cyanomethyl]-2-methylphenyl]-2-hydroxy-3,5-diiodobenzamide], for which the MIC in the series on S. pyogenes strains (setting [5]) is 12.8 µg/mL and 19 µM. Besides, the MIC in the series on S. aureus strains (S. aureus strains) is ≤ 1.7 µg/mL and ≤ 2.5 µM. In series [1], the “Resistance mutation rate at MIC × 1” value is listed as “= 2 × 10^−8*” and the “mutational frequency at MIC×1” value is 2×10^−8. Further, in series [2], the LD50 rats p.o is recorded as 300 mg/kg. Also, in series [2] (rats, p.o.), the LD50 is 262 to 342 mg/kg.

In the case of `O=C(Nc1ccc(Oc2ccc(Cl)cc2)c(Cl)c1)c1cc(I)cc(I)c1O` [Rafoxanide, 3′-chloro-4′-(p-chlorophenoxy)-3,5-diiodosalicylanilide], the MIC was 6.4 µg/mL and 10 µM with S. pyogenes strains; 0.8 µg/mL and 1.25 µM in the series on S. aureus strains (MRSA). The “Resistance mutation rate at MIC × 1” value in series [1] is given as “= 5 × 10^−9*”. In addition, the “mutational frequency at MIC×1” value in series [1] was 5×10^−9. Further, the LD50 mice p.o in series [3] (Table 3) is 270 mg/kg. For the same compound, the LD50 in series [3] (mice, p.o.) was 232 to 300 mg/kg; in series [2] (rats, p.o.), 980->2000 mg/kg. Also, the LD50 rats p.o in series [2] is 1500 mg/kg. Moreover, in series [2] (rats, p.o., median of studies), the LD50 median is over 1490 mg/kg.

For `O=C(Nc1cc(Cl)cc(Cl)c1O)c1c(O)c(Cl)cc(Cl)c1Cl` [Oxyclozanide, 3,3′,5,5′,6-pentachloro-2′-hydroxysalicylanilide], the MIC in the series on S. pyogenes strains (setting [5]) was 6.4 µg/mL and 15.9 µM; with S. aureus strains (tested against one strain: MRSA 01), 1.6 µg/mL and 4 µM. In addition, the “mutational frequency at MIC×1” value in series [1] is given as 1×10^−7. The LD50 rats p.o in series [2] is 980 to 3500 mg/kg. In addition, the LD50 in series [2] (rats, p.o.) was 980 to 3519 mg/kg. For the same compound, in series [4], the “safety margin after oral administration” value is recorded as “Low safety margin”.

By LD50 is commonly meant the dose at which mortality reaches 50%.
